Assays:
D4 receptor = target: T1, D4 receptor (Homo sapiens, UniProt P21917); assay type: binding
T1 sequence (P21917 1-419): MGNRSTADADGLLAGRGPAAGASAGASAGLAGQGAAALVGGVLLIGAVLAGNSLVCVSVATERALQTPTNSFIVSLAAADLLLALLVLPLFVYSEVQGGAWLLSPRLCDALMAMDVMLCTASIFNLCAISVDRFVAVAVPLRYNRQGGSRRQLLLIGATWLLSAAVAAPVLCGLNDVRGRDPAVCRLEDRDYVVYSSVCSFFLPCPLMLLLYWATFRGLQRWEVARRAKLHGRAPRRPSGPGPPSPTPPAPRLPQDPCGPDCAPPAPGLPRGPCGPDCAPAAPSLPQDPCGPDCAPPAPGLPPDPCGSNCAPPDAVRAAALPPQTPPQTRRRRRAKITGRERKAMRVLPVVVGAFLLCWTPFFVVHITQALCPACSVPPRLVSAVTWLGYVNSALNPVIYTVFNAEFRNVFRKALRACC

[1] = Mouse liver microsomal intrinsic clearance; assay type: in vitro ADME; conditions: for CLint scaled: liver microsomes; for Predicted hepatic clearance mCLHEP: well-stirred organ CL model, binding terms excluded
[2] = Human liver microsomal intrinsic clearance; assay type: in vitro ADME; conditions: for CLint scaled / Predicted hepatic clearance hCLHEP: human; for CLint scaled: liver microsomes, Intrinsic clearance hCLINT; for Predicted hepatic clearance hCLHEP: well-stirred organ CL model, binding terms excluded
[3] = Mouse plasma protein binding, equilibrium dialysis; assay type: in vitro ADME
σ2 receptor = σ2 receptor (Homo sapiens, UniProt Q5BJF2); assay: σ2 receptor radioligand binding, [3H]DTG, HEK293 membranes; conditions: ratio, σ1 over σ2
σ2 receptor, sequence (Q5BJF2 whole entry, species assumed): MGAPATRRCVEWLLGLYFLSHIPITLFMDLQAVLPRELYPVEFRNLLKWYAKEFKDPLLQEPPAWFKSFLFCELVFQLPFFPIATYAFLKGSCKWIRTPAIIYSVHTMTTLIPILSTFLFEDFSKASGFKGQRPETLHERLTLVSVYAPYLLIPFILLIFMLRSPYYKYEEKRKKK

Compound | CLint scaled [1] [mL/min/kg] | Predicted hepatic clearance mCLHEP [1] [mL/min/kg] | CLint scaled ([2]; human liver microsomes) [mL/min/kg] | Predicted hepatic clearance hCLHEP [2] [mL/min/kg] | also measured
Cn1ncc2cc(CN3CCC(OCc4ccc(F)c(F)c4)CC3)ccc21 [Compound 13a, 5-((4-((3,4-difluorobenzyl)oxy)piperidin-1-yl)methyl)-1-methyl-1H-indazole] | – | 48.2 | – | 12.5 | –
c1cncc(COC2CCN(Cc3cn4ccccc4n3)CC2)c1 [Compound 17e, 2-((4-(pyridin-3-ylmethoxy)piperidin-1-yl)methyl)imidazo [1,2-a]pyridine] | – | – | – | – | Ki (D4 receptor): 2.29 µM
Cc1nc(CN2CCC(OCc3ccc(Cl)c(F)c3)CC2)c2ccccn12 [Compound 16b, 1-((4-((4-chloro-3-fluorobenzyl)oxy)piperidin-1-yl)methyl)-3-methylimidazo[1,5-a]pyridine] | 199 | 62.0 | 130 | 17.4 | –
Cn1ncc2cc(CN3CCC(OCc4cccc(C(F)(F)F)c4)CC3)ccc21 [Compound 13c, 1-Methyl-5-((4-((3-(trifluoromethyl)benzyl)oxy)piperidin-1-yl)methyl)-1H-indazole] | – | 43.8 | – | 15.3 | –
Cn1cnc2cc(CN3CCC(OCc4ccc(Cl)c(F)c4)CC3)ccc21 [Compound 11b, 5-((4-((4-chloro-3-fluorobenzyl)oxy)piperidin-1-yl)methyl)-1-methyl-1H-benzo[d]imidazole] | < 20 | <16 | < 20 | <10 | –
Fc1ccc(CN2CCCC3(CCN(Cc4cc5ccc(Cl)cc5[nH]4)C3)C2)cc1F (stereo not drawn) [Compound 25c, 2-((6-chloro-1H-indol-2-yl)methyl)-7-(3,4-difluorobenzyl)-2,7-diazaspiro[4.5]decane] | – | – | – | – | Ki (D4 receptor): > 10 µM
Fc1ccc(COC2CCN(Cc3cc4ccc(Cl)cc4[nH]3)CC2)cc1F [Compound 14a, 6-chloro-2-((4-((3,4-difluorobenzyl)oxy)piperidin-1-yl)methyl)-1H-indole] | – | 43.3 | < 30 | 10.8 | –
Cc1c(Cl)cccc1NC(=O)CN1CCC2(CCCN2Cc2ccc(F)c(F)c2)CC1 [Compound 24a, N-(3-chloro-2-methylphenyl)-2-(1-(3,4-difluorobenzyl)-1,8-diazaspiro[4.5]decan-8-yl)acetamide] | – | – | – | – | Ki (D4 receptor): > 10 µM
Cc1cc(NC(=O)CN2CCC3(CCCN3Cc3ccc(F)c(F)c3)C2)ccc1F (stereo not drawn) [Compound 24e, 2-(1-(3,4-difluorobenzyl)-1,7-diazaspiro[4.4]nonan-7-yl)-N-(4-fluoro-3-methylphenyl)acetamide] | – | – | – | – | Ki (D4 receptor): > 10 µM
Fc1cc(COC2CCN(Cc3ccc4[nH]ncc4c3)CC2)ccc1Cl [Compound 12b, 5-((4-((4-chloro-3-fluorobenzyl)oxy)piperidin-1-yl)methyl)-1H-indazole] | 72 | 40.0 | < 30 | 11.5 | Intrinsic clearance hCLINT ([2]; human liver microsomes): 26.8 mL/min/kg
Cn1ncc2cc(CN3CCC(OCc4ccc(Cl)c(F)c4)CC3)ccc21 [Compound 13b, 5-((4-((4-chloro-3-fluorobenzyl)oxy)piperidin-1-yl)methyl)-1-methyl-1H-indazole] | – | 43.8 | – | 13.7 | –
c1ccc(OC[C@@H]2CN(Cc3ccc4[nH]ccc4c3)CCO2)cc1 [Compound 4] | – | – | – | – | selectivity for D4 versus σ1 (D4 receptor; D4 over σ1): ~ 13 fold
Cc1ccccc1CO[C@H]1CCCN(Cc2ccc3c(cnn3C)c2)C1 [Compound 13g, (S)-1-methyl-5-((3-((2-methylbenzyl)oxy)piperidin-1-yl)methyl)-1H-indazole] | 545 | 77.3 | 334 | 19.0 | –

Now from value to molecule, other results behind:

CLint scaled [1] [mL/min/kg] | Predicted hepatic clearance mCLHEP [1] [mL/min/kg] | CLint scaled ([2]; human liver microsomes) [mL/min/kg] | Predicted hepatic clearance hCLHEP [2] [mL/min/kg] | Compound | also measured
855 | 81.5 | 602 | 19.5 | Cc1cc(NC(=O)CN2CCC3(CCCN(Cc4ccc(F)c(F)c4)C3)C2)ccc1F (stereo not drawn) [Compound 24f, 2-(7-(3,4-difluorobenzyl)-2,7-diazaspiro[4.5]decan-2-yl)-N-(4-fluoro-3-methylphenyl)acetamide] | Ki (D4 receptor): > 10 µM; Stability in mouse plasma (mPPB column) [3]: c
– | 68.6 | – | 17.6 | Cc1c(Cl)cccc1NC(=O)CN1CCC(OCc2ccc(F)c(F)c2)CC1 [Compound 18a, N-(3-chloro-2-methylphenyl)-2-(4-((3,4-difluorobenzyl)oxy)piperidin-1-yl)acetamide] | –
– | 57.4 | – | <10 | Fc1ccc(COC2CCN(Cc3cn4ccccc4n3)CC2)cc1F [Compound 17a, 2-((4-((3,4-difluorobenzyl)oxy)piperidin-1-yl)methyl)imidazo[1,2-a]pyridine] | –
150 | 56.3 | 69.3 | 15.6 | FC(F)(F)c1cccc(COC2CCN(Cc3cn4ccccc4n3)CC2)c1 [Compound 17c, 2-((4-((3-(trifluoromethyl)benzyl)oxy)piperidin-1-yl)methyl)imidazo[1,2-a]pyridine] | –
1190 | 83.7 | 1130 | 19.7 | COc1ccc(CN2CCC[C@H](OCc3ccc(C)cc3)C2)cc1F [Compound 19e, (S)-1-(3-fluoro-4-methoxybenzyl)-3-((4-methylbenzyl)oxy)piperidine] | –
> 2400 | 86.8 | 964 | 19.7 | COc1ccc(CN2CCC[C@H](OCc3ccc(F)c(C)c3)C2)cc1F [Compound 19a, (S)-3-((4-fluoro-3-methylbenzyl)oxy)-1-(3-fluoro-4-methoxybenzyl)piperidine] | –
– | 69.6 | – | 14.3 | Cc1cc(NC(=O)CN2CCC(OCc3ccc(F)c(F)c3)CC2)ccc1F [Compound 18d, 2-(4-((3,4-difluorobenzyl)oxy)piperidin-1-yl)-N-(4-fluoro-3-methylphenyl)acetamide] | selectivity σ1:σ2 (σ2 receptor): ~ 1.4; Stability in mouse plasma (mPPB column) [3]: c
– | 46.7 | – | 13.8 | Fc1cc(COC2CCN(Cc3cn4ccccc4n3)CC2)ccc1Cl [Compound 17b, 2-((4-((4-chloro-3-fluorobenzyl)oxy)piperidin-1-yl)methyl)imidazo[1,2-a]pyridine] | –
321 | 70.3 | 42.1 | 13.6 | Fc1ccc(OC[C@@H]2CN(Cc3cn4ccccc4n3)CCO2)cc1F [Compound 17k, (S)-2-((3,4-difluorophenoxy)methyl)-4-(imidazo[1,2-a]pyridin-2-ylmethyl)morpholine] | –

From PMC12969314 (European journal of medicinal chemistry, 2022)
